Measurements published in the kinase profiling compilation of Christmann-Franck et al. (2016).

Assays:
Assay in all cases: radiometric filter-binding kinase assay, Kinase HotSpot
Conditions in all cases: compound 0.5 µM; ATP 10 µM
[1] = tested on: FLT4 (human), P35916 [Q890H]
[2] = tested on: MAP2K6 (human), P52564 [S207E/T211E]
[3] = tested on: MKNK1 (human), Q9BUB5 [T385D; 165-205 del]
[4] = tested on: PRKCQ (human), Q04759 [P330L]
Chain of PRKCQ (human), Q04759 [P330L] (Q04759 whole entry P330L, looked up): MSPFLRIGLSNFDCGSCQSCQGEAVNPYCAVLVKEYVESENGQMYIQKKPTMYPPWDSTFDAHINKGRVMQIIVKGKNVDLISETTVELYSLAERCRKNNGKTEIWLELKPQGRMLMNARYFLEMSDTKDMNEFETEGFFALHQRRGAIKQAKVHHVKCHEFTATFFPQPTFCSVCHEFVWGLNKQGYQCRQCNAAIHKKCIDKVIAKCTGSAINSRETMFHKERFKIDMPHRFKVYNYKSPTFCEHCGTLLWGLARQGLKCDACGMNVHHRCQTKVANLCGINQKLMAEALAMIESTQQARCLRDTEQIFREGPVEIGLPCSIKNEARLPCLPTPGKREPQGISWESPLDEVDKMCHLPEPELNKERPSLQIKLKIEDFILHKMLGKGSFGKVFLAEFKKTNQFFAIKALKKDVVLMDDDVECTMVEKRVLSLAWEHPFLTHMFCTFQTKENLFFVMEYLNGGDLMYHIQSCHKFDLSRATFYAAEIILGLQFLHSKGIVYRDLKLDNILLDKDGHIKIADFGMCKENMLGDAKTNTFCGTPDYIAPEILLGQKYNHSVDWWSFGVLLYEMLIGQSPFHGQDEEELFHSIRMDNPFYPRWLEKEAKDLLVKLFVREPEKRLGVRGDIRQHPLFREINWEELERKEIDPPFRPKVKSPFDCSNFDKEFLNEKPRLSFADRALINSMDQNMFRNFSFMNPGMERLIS

Chain of MAP2K6 (human), P52564 [S207E/T211E] (P52564 whole entry S207E/T211E, looked up): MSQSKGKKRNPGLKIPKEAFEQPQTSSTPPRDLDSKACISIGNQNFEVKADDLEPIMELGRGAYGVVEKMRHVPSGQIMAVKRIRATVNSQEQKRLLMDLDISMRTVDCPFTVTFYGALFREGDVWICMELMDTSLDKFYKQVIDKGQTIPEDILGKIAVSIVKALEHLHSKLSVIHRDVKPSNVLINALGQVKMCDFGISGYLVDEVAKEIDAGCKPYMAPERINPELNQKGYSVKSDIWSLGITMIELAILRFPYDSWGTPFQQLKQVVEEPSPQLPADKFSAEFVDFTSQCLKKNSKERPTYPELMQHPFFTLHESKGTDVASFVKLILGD
Chain of MKNK1 (human), Q9BUB5 [T385D; 165-205 del] (Q9BUB5 whole entry, looked up, stated change not applied): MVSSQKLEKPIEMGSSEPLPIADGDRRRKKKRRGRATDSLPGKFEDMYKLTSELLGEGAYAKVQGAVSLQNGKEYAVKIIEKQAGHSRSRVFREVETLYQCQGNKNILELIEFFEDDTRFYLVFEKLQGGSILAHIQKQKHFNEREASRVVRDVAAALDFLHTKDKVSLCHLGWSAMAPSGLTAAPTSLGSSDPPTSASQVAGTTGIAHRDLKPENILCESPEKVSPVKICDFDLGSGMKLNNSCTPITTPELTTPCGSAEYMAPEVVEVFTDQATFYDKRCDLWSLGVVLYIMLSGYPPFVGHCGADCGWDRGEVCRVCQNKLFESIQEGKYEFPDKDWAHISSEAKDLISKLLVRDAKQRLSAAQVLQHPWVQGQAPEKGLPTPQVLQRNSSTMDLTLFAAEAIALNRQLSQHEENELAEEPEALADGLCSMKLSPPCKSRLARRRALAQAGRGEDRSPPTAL
Chain of FLT4 (human), P35916 [Q890H] (P35916 whole entry, looked up, stated change not applied): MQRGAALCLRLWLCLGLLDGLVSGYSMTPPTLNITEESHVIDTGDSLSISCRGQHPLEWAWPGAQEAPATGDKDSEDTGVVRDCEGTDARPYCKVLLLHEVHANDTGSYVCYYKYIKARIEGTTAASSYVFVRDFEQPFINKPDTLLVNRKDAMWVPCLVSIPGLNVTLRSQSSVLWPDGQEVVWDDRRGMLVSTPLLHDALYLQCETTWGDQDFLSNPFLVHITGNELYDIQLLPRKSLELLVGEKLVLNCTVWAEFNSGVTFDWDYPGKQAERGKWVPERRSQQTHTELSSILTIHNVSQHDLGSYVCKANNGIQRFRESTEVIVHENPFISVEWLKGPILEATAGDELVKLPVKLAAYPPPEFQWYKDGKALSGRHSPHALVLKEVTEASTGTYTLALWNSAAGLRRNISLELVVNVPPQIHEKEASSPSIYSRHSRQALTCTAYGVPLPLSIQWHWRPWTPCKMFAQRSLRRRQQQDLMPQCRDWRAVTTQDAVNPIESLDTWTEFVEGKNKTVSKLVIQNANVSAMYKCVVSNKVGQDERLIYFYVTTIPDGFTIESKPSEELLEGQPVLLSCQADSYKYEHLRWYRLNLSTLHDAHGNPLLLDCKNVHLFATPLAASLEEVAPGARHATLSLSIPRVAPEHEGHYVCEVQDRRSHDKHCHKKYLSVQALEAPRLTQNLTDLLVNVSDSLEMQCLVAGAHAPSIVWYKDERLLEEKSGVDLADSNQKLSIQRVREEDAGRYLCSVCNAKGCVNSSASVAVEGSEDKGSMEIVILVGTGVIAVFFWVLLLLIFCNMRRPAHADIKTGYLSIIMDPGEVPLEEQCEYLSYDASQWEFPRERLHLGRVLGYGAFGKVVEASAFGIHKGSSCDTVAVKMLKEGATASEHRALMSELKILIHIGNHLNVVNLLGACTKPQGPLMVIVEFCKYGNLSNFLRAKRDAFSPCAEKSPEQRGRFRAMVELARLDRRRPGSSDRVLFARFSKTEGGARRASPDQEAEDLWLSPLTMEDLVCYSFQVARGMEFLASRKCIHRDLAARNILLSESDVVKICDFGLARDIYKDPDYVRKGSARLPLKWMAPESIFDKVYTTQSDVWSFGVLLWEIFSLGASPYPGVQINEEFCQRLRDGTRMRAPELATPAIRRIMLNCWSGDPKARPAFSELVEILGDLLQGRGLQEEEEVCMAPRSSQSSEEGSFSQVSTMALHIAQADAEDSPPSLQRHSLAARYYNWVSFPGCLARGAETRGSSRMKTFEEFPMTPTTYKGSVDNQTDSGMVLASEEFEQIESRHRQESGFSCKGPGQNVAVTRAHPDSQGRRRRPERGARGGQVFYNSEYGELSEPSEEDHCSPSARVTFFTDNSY

Structure (SMILES) | residual activity [1] [%] | residual activity [2] [%] | residual activity [3] [%] | residual activity [4] [%]
N#CC(C#N)=C(N)/C(C#N)=C/c1ccc(O)cc1 | 95.9 | 94 | 77.2 | 99.8
CCOC(=O)c1c(C)[nH]c(/C=C2\C(=O)Nc3ccccc32)c1C | 79.2 | 96.5 | 112 | 116
Cc1cc(Nc2nc(-c3ccccc3)nc3ccccc23)n[nH]1 | 44.9 | 93.2 | 93.5 | 82.3
N#CCCc1ccc2c(c1)-c1[nH]c3ccc([N+](=O)[O-])cc3c1CC(=O)N2 | 66.5 | 97.2 | 66.7 | 111
c1ccc(-c2n[nH]cc2-c2ccnc3ccccc23)nc1 | 92.2 | 138 | 75.9 | 115
O=c1cc(N2CCOCC2)oc2c1ccc1ccccc12 | 112 | 94.1 | 95 | 90.6
CN([C@@H](Cc1ccc(OS(=O)(=O)c2cccc3cnccc23)cc1)C(=O)N1CCN(c2ccccc2)CC1)S(=O)(=O)c1cccc2cnccc12 | 90.5 | 104 | 106 | 108
CC(C)(C)c1nc2c3ccc(F)cc3c3c(=O)[nH]ccc3c2[nH]1 | 71.2 | 89 | 101 | 66.8
COc1cc2nccc(Oc3ccc(NC(=S)NC(=O)c4ccccc4C)cc3)c2cc1OC | 73.8 | 94.9 | 93.2 | 107
O=c1cc(-c2cccc3c2Sc2ccccc2S3)oc(N2CCOCC2)c1 | 104 | 107 | 99.5 | 112
O=C1NC(=O)C(c2cn(CCCn3ccnc3)c3ccccc23)=C1Nc1ccccc1 | 95.8 | 103 | 99.3 | 37.2
CCN(CC)CCNC(=O)c1c(C)[nH]c(/C=C2\C(=O)Nc3ccc(Cl)cc32)c1C | 12.1 | 86.2 | 75.4 | 105
Nc1cccc(-c2cc3c(Oc4cccc(O)c4)ncnc3[nH]2)c1 | 15.8 | 90.1 | 87.6 | 64.5
CCN(CC)C(=O)c1ccc(Nc2nc(OCC3CCCCC3)c3nc[nH]c3n2)cc1 | 25.9 | 93.1 | 97.5 | 97.9
CCN1/C(=C/C(C)=O)Sc2ccc(OC)cc21 | 99.7 | 86.7 | 119 | 95.9
Cc1ccc(NC(=O)c2ccc(CN3CCN(C)CC3)cc2)cc1Nc1nc(-c2cccnc2)cs1 | 100 | 96.5 | 90 | 103
CSc1nc(-c2ccc(F)cc2)c(-c2ccnc(NC(C)c3ccccc3)c2)[nH]1 (centres undefined) | 91.3 | 80.5 | 97.1 | 111
COc1cc2ncnc(Nc3ccc(F)c(Cl)c3)c2cc1OCCCN1CCOCC1 | 92.2 | 90.1 | 41.9 | 85.9
COc1cc2c(cc1OC)-c1[nH]nc(Nc3cccc(F)c3)c1C2 | 82.6 | 87 | 89.8 | 108
COc1ccc2c(c[n+](C)c3c4cc5c(cc4ccc23)OCO5)c1OC | 97.6 | 95 | 102 | 99.9
Cc1ccc(NC2=CC(=O)c3sc(C)nc3C2=O)cc1 | 95.7 | 90.4 | 117 | 93
O=S(=O)(NCCNC/C=C/c1ccc(Br)cc1)c1cccc2cnccc12 | 108 | 81.3 | 93.4 | 104
O=C(O)/C=C/c1cc(Br)c(Br)c(Br)c1Br | 98.2 | 96.1 | 61.1 | 89.6
CC(C)[C@H](CO)Nc1nc(Nc2cc(N)cc(Cl)c2)c2ncn(C(C)C)c2n1 | 80.7 | 92.5 | 99.1 | 119
CC(C)[C@H](CO)Nc1nc(Nc2cccc(Cl)c2)c2ncn(C(C)C)c2n1 | 110 | 105 | 79.8 | 127
Nc1ncnc2[nH]nc(Nc3ccc(F)cc3)c12 | 92.9 | 87.6 | 75.2 | 103

Structure (SMILES) | residual activity [1] [%] | residual activity [2] [%] | residual activity [3] [%] | residual activity [4] [%]
CCCC(=O)Oc1ccc2[nH]c(C(=O)c3cc4ccccc4[nH]3)cc2c1 | 98.2 | 97.3 | 101 | 111
O=c1c2ccccc2[nH]c(=S)n1CCN1CCC(=C(c2ccc(F)cc2)c2ccc(F)cc2)CC1 | 107 | 102 | 101 | 92.2
O=C(O)c1ccc2c3c1cccc3c(=O)n1c3ccccc3nc21 | 82.5 | 103 | 60.3 | 117
Cn1nc2c3c(cccc31)C(=O)c1ccccc1-2 | 86.8 | 96.4 | 105 | 106
Cc1cc2ncc(-c3ccccc3)nc2cc1C | 115 | 91.1 | 80.3 | 97
O=C(NC(NC(=S)Nc1ccc(F)c([N+](=O)[O-])c1)C(Cl)(Cl)Cl)C(c1ccccc1)c1ccccc1 (centres undefined) | 102 | 107 | 100 | 107
O=C(Nc1cccc(Nc2nccc(Nc3cccc(C(F)(F)F)c3)n2)c1)C1CC1 | 95.9 | 98.3 | 91 | 107
CCCNC(=O)Nc1ccc(Oc2ncnc3cc(OC)c(OC)cc23)cc1Cl | 38.5 | 106 | 95.2 | 102
CC(C)n1cnc2c(Nc3cccc(Cl)c3)nc(NCCO)nc21 | 92.6 | 88.9 | 98.7 | 91.4
CCN(CC)CCCCN1c2ccccc2Oc2ccc(Cl)cc21 | 98.8 | 102 | 95.6 | 97.5
O=C1Cc2c([nH]c3ccc([N+](=O)[O-])cc23)-c2ccccc2N1 | 77.8 | 98.3 | 76.9 | 98.2
O=C1NC(=O)C(c2c[nH]c3ccccc23)=C1c1c[nH]c2ccccc12 | 35.2 | 98 | 115 | 33.8
COc1ccc(COc2ccc(Cc3cnc(N)nc3N)cc2OC)cc1 | 105 | 87.4 | 113 | 98
N#C/C(=C1/Nc2ccccc2S1)c1ccnc(NCCc2cccnc2)n1 | 86.1 | 92.5 | 90.2 | 104
CNC(=O)c1cc(Oc2ccc(NC(=O)Nc3ccc(Cl)c(C(F)(F)F)c3)cc2)ccn1 | 43 | 96.9 | 75.1 | 100
O=C1Cc2c([nH]c3ccc(Br)cc23)-c2ccccc2N1 | 78.7 | 95.3 | 98.4 | 114
Nc1nccc(-c2c(-c3ccc(F)cc3)ncn2C2CCNCC2)n1 | 116 | 106 | 99 | 107
O=C1Nc2ccccc2/C1=C\c1c(Cl)[nH]c2ccccc12 | 108 | 93.4 | 105 | 91.7
CO[C@H]1CC2CC[C@@H](C)[C@@](O)(O2)C(=O)C(=O)N2CCCC[C@H]2C(=O)OC([C@H](C)C[C@@H]2CC[C@@H](O)[C@H](OC)C2)CC(=O)[C@H](C)/C=C(\C)[C@@H](O)[C@@H](OC)C(=O)[C@H](C)C[C@H](C)/C=C/C=C/C=C/1C (some centres undefined) | 116 | 107 | 101 | 126
CNc1cc2c(Nc3cccc(Br)c3)ncnc2cn1 | 97 | 94.5 | 55.2 | 110
O=c1[nH]c2ccccc2n1C1CCN(Cc2ccc(-c3nc4cc5[nH]cnc5cc4nc3-c3ccccc3)cc2)CC1 | 98.7 | 101 | 104 | 96.4
O=C(c1ccccc1)c1ccc(N2CCOCC2)cc1O | 112 | 93.5 | 103 | 92.5
O=C1Nc2cc(Br)ccc2/C1=C1/Nc2ccccc2/C1=N\O | 50.8 | 98.2 | 102 | 105
O=C(Nc1ccc(Cl)cc1)c1ccccc1NCc1ccncc1 | 44.8 | 117 | 118 | 110
O=C1NC(=O)/C(=C\c2ccc3nccnc3c2)S1 | 108 | 91.2 | 96.5 | 92.8
